Laboratory results as given in patent US20060128736A1, “Camptothecin-carboxylate formulations” (priority 2002, published 2006).

What was measured:
[1] = system: A-375 melanoma; assay: Therapeutic efficacy of LipoCam in A-375 melanoma of nude mice (FIG. 12); assay type: in vivo, NMRI-nude mice; conditions: iv three times a week for three weeks at equitoxic doses, start at about 100 mm^3
Experimental: (§1) NMRI-nude mice were purchased from Elevage Janvier and housed in isolated ventilated cages under save environmental conditions (SPF facility, 22° C., 30-70% humidity, 12 h light/dark cycle) with food and water ad libitum. Experimental design was reviewed and approved by local government.
(§2) Tumor cells (A-375 human melanoma cell line, ATCC Nr.: CRL-1619) were grown as described in the data sheet supplied by ATCC. Tumor cells (5×10^6 in PBS) were inoculated s.c. in the right dorsal flank of mice in a volume of 50 μl on day 0.
Mice were assigned to the experimental groups (8 animals per cage), housed and handled (including monitoring of the body weight gain) at least five days before tumor inoculation (=day −6 to 0). […] Equitoxic doses of the compounds were determined in separate experiments, where toxicity was evaluated based on haematological parameters, body weight and animal clinical observations (see Tab. 3). […] Animals were clinically monitored during the whole experiment, monitoring of tumor size was performed three times a week. The tumor dimensions were measured by caliper and the tumor size was calculated according to the following formula: V=πL W^2/6 (L=greatest length, W=width of perpendicular axis). The body weight of individual animals was monitored at least twice during handling period, after tumor inoculation and after start of treatment. […]

[2] = Fluorescence anisotropy of CPT in lipid suspensions; assay type: physicochemical; conditions: 10 mM Tris-buffer pH 7.5, 10% trehalose
Source text: These finding are corroborated by fluorescence anisotropy measurements of the CPT. In this experiment, an increase of the fluorescence anisotropy is expected if the fluorophore is inserted into a liposome and thus its mobility is decreased. […] DOTAP and DOPC both comprise unsaturated fatty acid chains, but DOTAP is positively charged while DOPC is neutral.
For efficient binding, in addition to charge, the phase state of the fatty acid chains is important. […] DOTAP has its main phase transition (Tm) near 37° C. […] Below that temperature the fatty acid chains are in the gel phase (a crystalline like state) and above they are in the liquid crystalline (fluid-like) state.
FIG. 9: Fluorescence anisotropy measurements of CPT in lipid suspensions from DOTAP and DOPC and as prepared by different methods. […]
FIG. 10: Comparison of fluorescence anisotropy measurements with DOTAP and DMTAP Measurements with CPT and with 10-OH-CPT are shown. […]
In order to get further information on the CPT-lipid interaction form an independent method, fluorescence anisotropy measurements were performed. […] The fluorescence anisotropy was taken as a measure for the binding strength of CPT to the liposome. […]
Fluorescence anisotropy measurements from liposomes with two different cationic lipids, DOTAP and DMTAP, and two different CPT drugs (CPT and 10-OH-CPT) are compared. […]

[3] = system: A-375 melanoma; assay: Therapeutic efficacy of LipoCam IV and VI in A-375 melanoma of nude mice (FIG. 13); assay type: in vivo, NMRI-nude mice; conditions: 1 and 2 mg/kg iv three times a week for three weeks
Experimental: as §1, §2
Mice were assigned to the experimental groups (8 animals per cage), housed and handled (including monitoring of the body weight gain) at least five days before tumor inoculation (=day −6 to 0). […] Toxicity was evaluated based on hematological parameters, body weight and animal clinical observations. […]
Animals were clinically monitored during the whole experiment, monitoring of tumor size was performed three times a week. The tumor dimensions were measured by caliper and the tumor size was calculated according to the following formula: V=πL W^2/6 (L=greatest length, W=width of perpendicular axis). The body weight of individual animals was monitored at least twice during handling period, after tumor inoculation and after start of treatment. […] The number of red and white blood cells and platelets were determined using an automated cell counter (Abbott Cell Dyn 3500).

SMILES	Anti-tumor effect (tumor volume) [1]	Fluorescence anisotropy (measure of binding strength of CPT to the liposome) [2]	Order of antitumor efficacy [3]
CC[C@@](O)(C(=O)[O-])c1cc2n(c(=O)c1CO)Cc1cc3ccccc3nc1-2.[Na+] [CPT-Na-Carboxylate]	only a retardation	–	–
CCC(O)(C(=O)O)c1cc2n(c(=O)c1CO)Cc1cc3ccccc3nc1-2 (stereo not shown) [CPT-carboxylate]	–	zero	LipoCam IV (2 mg/kg)>LipoCam VI (1 mg/kg)>CPT-carboxylate (2 mg/kg)>CPT-carboxylate (1 mg/kg)
CC[C@@]1(O)C(=O)OCc2c1cc1n(c2=O)Cc2cc3cc(O)ccc3nc2-1 [Formulation 10-OH-CPT, 10-Hydroxy-camptothecin]	–	higher binding efficacy	–
